Reference: publication PMC9609273 (Pharmaceuticals, 2022)
Values after ≈ are worked out from the molar mass of the structure shown. Like-named read-outs stand apart in the source and are kept apart here.

Legend:
[1] = system: Human non-tumorigenic lung epithelial cells (BEAS-2B); format: cell-based; details: read-out: Toxicity IC50 BEAS-2B
[2] = system: Human Embryonic Kidney cells (HEK 293); details: for IC50: read-out: Toxicity IC50 HEK293
[3] = system: Normal Lung Fibroblasts (IMR-90); format: cell-based, human; details: read-out: Toxicity IC50 IMR-90
[4] = system: Mtb H37Rv; assay: microbe, parasite or virus in culture; format: cell-based, Mycobacterium tuberculosis
[5] = 6.0 × 10^–5 M in DMSO and 28% ethanol-water, 24 h, 25 °C
[6] = MABA, Mtb H37Rv, one week at 37 °C

Row | Compound | IC50 ([1]; MTT, 48 h, triplicate) | IC50 ([2]; MTT, 48 h, triplicate) | IC50 ([3]; MTT, 48 h, triplicate) | MIC [4, 6] | MIC ([4]; Mycobacterium tuberculosis, 168 h, MABA, Mtb H37Rv, one week at 37 °C) | Change in λmax values (stability of hydrazone) [5] | Cytotoxicity against HEK293 (in words) ([2]; MTT) | IC50 [1] | IC50 [2] | IC50 [3] | MIC [4]
1 | 3-((2-Isonicotinoylhydrazono)methyl)phenyl 4-acetamidobenzenesulfonate [SIH11] | > 100 µM | > 100 µM | > 100 µM | 0.62 µM | – | – | – | – | – | – | –
2 | NNC(=O)c1ccncc1 [Isoniazid, isonicotinic acid hydrazide, reference compound] | – | – | – | – | 0.31 µM (≈ 0.0425 µg/mL) | – | – | – | – | – | –
3 | 3-((2-Isonicotinoylhydrazono)methyl)phenyl 2,4,6-trimethylbenzenesulfonate [SIH3] | > 100 µM | 100 µM | > 100 µM | 0.62 µM | – | – | – | – | – | – | –
4 | 3-((2-Isonicotinoylhydrazono)methyl)phenyl 4-bromobenzenesulfonate [SIH5] | > 100 µM | 100 µM | 90.3 µM | 0.62 µM | – | – | – | – | – | – | –
5 | 3-((2-Isonicotinoylhydrazono)methyl)phenyl 4-chlorobenzenesulfonate [SIH6] | > 100 µM | > 100 µM | > 100 µM | 0.62 µM | – | – | – | – | – | – | –
6 | 3-((2-Isonicotinoylhydrazono)methyl)phenyl 4-nitrobenzenesulfonate [SIH9] | > 100 µM | 100 µM | > 100 µM | 0.62 µM | – | – | – | – | – | – | –
7 | 3-((2-Isonicotinoylhydrazono)methyl)phenyl 4-(tert-butyl)benzenesulfonate [SIH2] | > 100 µM | > 100 µM | 89.5 µM | 0.62 µM | – | – | – | – | – | – | –
8 | 3-((2-Isonicotinoylhydrazono)methyl)phenyl 2,5-dichlorobenzenesulfonate [SIH8] | > 100 µM | > 100 µM | 100 µM | 0.62 µM | – | – | – | – | – | – | –
9 | 3-((2-Isonicotinoylhydrazono)methyl)phenyl 4-iodobenzenesulfonate [SIH7] | > 100 µM | > 100 µM | 100 µM | 0.62 µM | – | – | – | – | – | – | –
10 | 3-((2-Isonicotinoylhydrazono)methyl)phenyl 4-methylbenzenesulfonate [SIH1] | > 100 µM | 57.2 µM | > 100 µM | 0.31 µM | – | no significant change in λmax values | moderately toxic | – | – | – | –
11 | 3-((2-Isonicotinoylhydrazono)methyl)phenyl quinoline-8-sulfonate [SIH13] | – | – | – | – | – | – | – | > 100 µM | 58.3 µM | 100 µM | 0.31 µM
12 | 3-((2-Isonicotinoylhydrazono)methyl)phenyl 3-nitrobenzenesulfonate [SIH10] | > 100 µM | > 100 µM | > 100 µM | 0.62 µM | – | – | – | – | – | – | –
13 | 3-((2-Isonicotinoylhydrazono)methyl)phenyl 4-methoxybenzenesulfonate [SIH4] | > 100 µM | 40.8 µM | > 100 µM | 0.31 µM | – | no significant change in λmax values | moderately toxic | – | – | – | –
14 | 3-((2-Isonicotinoylhydrazono)methyl)phenyl [1,1′-biphenyl]-4-sulfonate [SIH12] | > 100 µM | 52.4 µM | 57.7 µM | 0.31 µM | – | no significant change in λmax values | moderately toxic | – | – | – | –
